{"source": "paper PMC5048684", "about": "(The journal of physical chemistry. B, 2016)", "key": {"[1]": {"target": "CYP3A4 (Homo sapiens, UniProt P08684)", "sequence (P08684 whole entry)": "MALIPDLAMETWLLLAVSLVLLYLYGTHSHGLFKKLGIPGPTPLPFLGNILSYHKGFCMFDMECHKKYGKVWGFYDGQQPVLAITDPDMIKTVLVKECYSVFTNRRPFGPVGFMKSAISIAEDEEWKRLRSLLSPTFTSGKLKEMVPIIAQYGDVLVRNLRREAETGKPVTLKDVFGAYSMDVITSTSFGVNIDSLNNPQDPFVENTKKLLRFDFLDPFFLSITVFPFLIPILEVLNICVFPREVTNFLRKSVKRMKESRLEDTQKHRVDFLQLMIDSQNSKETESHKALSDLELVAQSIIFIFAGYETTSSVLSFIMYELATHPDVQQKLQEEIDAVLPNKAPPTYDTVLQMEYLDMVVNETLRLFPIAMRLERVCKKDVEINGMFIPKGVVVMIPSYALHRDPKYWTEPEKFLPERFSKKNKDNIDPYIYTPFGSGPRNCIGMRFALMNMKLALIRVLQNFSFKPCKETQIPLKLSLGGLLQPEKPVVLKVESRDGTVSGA", "assay": "Luminescence titration of solubilized CYP3A4 with type I and type II ligands"}, "[2]": {"target": "T1, P450cam (Pseudomonas putida, UniProt P00183)", "T1 sequence (P00183 1-415)": "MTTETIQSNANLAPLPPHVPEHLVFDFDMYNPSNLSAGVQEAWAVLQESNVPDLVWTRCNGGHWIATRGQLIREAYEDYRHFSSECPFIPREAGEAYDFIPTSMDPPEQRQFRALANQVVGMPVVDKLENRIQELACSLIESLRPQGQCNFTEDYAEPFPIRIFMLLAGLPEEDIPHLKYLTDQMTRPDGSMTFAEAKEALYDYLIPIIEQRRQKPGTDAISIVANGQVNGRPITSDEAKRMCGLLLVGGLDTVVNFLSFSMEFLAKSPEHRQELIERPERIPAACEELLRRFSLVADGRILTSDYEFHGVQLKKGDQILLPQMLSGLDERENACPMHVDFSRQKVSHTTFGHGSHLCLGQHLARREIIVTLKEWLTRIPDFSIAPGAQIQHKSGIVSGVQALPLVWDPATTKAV", "conditions": "read-out: KS (literature values); depending on the stereoisomer used; cited from earlier work"}, "[3]": {"target": "T2, CYP2C9 (Homo sapiens, UniProt P11712)", "T2 sequence (P11712 whole entry)": "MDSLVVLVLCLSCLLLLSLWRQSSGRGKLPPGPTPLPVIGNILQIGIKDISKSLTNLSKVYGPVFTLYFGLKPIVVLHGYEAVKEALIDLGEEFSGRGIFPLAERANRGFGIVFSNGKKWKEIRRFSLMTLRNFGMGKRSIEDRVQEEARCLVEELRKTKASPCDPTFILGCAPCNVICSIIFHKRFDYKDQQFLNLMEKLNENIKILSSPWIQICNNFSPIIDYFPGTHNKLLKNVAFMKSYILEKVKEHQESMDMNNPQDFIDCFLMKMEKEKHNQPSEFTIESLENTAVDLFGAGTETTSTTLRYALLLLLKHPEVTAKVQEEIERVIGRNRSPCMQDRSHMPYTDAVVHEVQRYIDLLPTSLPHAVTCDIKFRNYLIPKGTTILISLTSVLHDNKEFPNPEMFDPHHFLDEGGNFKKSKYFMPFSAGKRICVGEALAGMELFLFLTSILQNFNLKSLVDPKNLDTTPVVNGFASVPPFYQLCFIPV", "assay": "Luminescence titration of solubilized CYP2C9 with type I and type II ligands"}, "[4]": {"target": "T2, CYP2C9", "conditions": "read-out: KS (reported value); ref Hutzler et al. 31; cited from earlier work"}}, "note": "Read-outs that look alike come from different tables or passages of the source.", "data": [{"smiles": "C[C@]12CC[C@H]3[C@@H](CCC4=CC(=O)CC[C@@]43C)[C@@H]1CC[C@@H]2O", "note": "[testosterone]", "values": [{"measurement": "Kd", "setting": "[1]", "value": "30.5 ± 6.5", "unit": "µM"}]}, {"smiles": "CC12CCC(CC1=O)C2(C)C", "note": "(centres unmarked) [camphor]", "values": [{"measurement": "Kd", "setting": "[2]", "value": "1.6 to 2.6", "unit": "µM"}]}, {"smiles": "O=C(Nc1ccc2ccccc2c1)c1cc(-c2ccncc2)nc2ccccc12", "note": "[QC, N-(naphthalene-2-yl)-2-(pyridine-4-yl)quinoline-4-carboxamide]", "values": [{"measurement": "Kd", "setting": "[3]", "value": "0.11 ± 0.06", "unit": "µM"}]}, {"smiles": "CC(C(=O)O)c1ccc(-c2ccccc2)c(F)c1", "note": "(centres unmarked) [flurbiprofen]", "values": [{"measurement": "Kd", "setting": "[4]", "value": 14.1, "unit": "µM"}, {"measurement": "Kd", "setting": "[3]", "value": "20.2 ± 1.1", "unit": "µM"}]}]}
